According to publication PMC5218480 (PLoS ONE, 2017):

Test system: MV-4-11 cells
Test: Gene expression microarray analysis (Affymetrix PrimeView) and GSEA
Format: cell-based, human
Set-up: RFU PODN (11730768_x_at) / Fold change /veh PODN (11730768_x_at) / RFU LINC00158 (11744669_a_at) / Fold change /veh LINC00158 (11744669_a_at) / RFU DUSP10 (11751237_a_at) / Fold change /veh DUSP10 (11751237_a_at) / RFU ID3 (11757404_x_at) / Fold change /veh ID3 (11757404_x_at) / RFU PLEKHG5 (11737974_s_at) / Fold change /veh PLEKHG5 (11737974_s_at) / RFU LRRC4B (11730491_at) / Fold change /veh LRRC4B (11730491_at) / RFU GIMAP4 (11747438_a_at) / Fold change /veh GIMAP4 (11747438_a_at) / RFU KRT8 (11758183_x_at) / Fold change /veh KRT8 (11758183_x_at) / RFU CNN1 (11734310_a_at) / Fold change /veh CNN1 (11734310_a_at) / RFU VPS37D (11726825_at) / Fold change /veh VPS37D (11726825_at) / RFU C10orf10 (11716522_x_at) / Fold change /veh C10orf10 (11716522_x_at) / RFU KIR2DL2 /// KIR2DL4 /// KIR2DL5A /// KIR2DL5B /// KIR2DS1 /// KIR2DS2 /// KIR2DS3 /// KIR2DS4 /// KIR3DL3 /// KIR3DL3 /// KIR3DS1 (11738374_at) / Fold change /veh KIR2DL2 /// KIR2DL4 /// KIR2DL5A /// KIR2DL5B /// KIR2DS1 /// KIR2DS2 /// KIR2DS3 /// KIR2DS4 /// KIR3DL3 /// KIR3DL3 /// KIR3DS1 (11738374_at) / RFU C1QL1 (11718748_at) / Fold change /veh C1QL1 (11718748_at) / RFU TMPRSS4 (11747572_a_at) / Fold change /veh TMPRSS4 (11747572_a_at) / RFU HAMP (11756126_x_at) / Fold change /veh HAMP (11756126_x_at) / RFU RNFT2 (11725882_a_at) / Fold change /veh RNFT2 (11725882_a_at) / RFU NR4A2 (11747474_a_at) / Fold change /veh NR4A2 (11747474_a_at) / RFU ABCC12 (11746883_a_at) / Fold change /veh ABCC12 (11746883_a_at) / RFU TMEM136 (11760407_x_at) / Fold change /veh TMEM136 (11760407_x_at) / RFU CLDN22 /// WWC2 (11732394_at) / Fold change /veh CLDN22 /// WWC2 (11732394_at) / RFU HLA-DPB1 (11760878_x_at) / Fold change /veh HLA-DPB1 (11760878_x_at) / RFU SPINT1 (11716480_a_at) / Fold change /veh SPINT1 (11716480_a_at) / RFU GAP43 (11754022_s_at) / Fold change /veh GAP43 (11754022_s_at) / RFU A4GNT (11735810_at) / Fold change /veh A4GNT (11735810_at) / RFU PRB3 (11715151_x_at) / Fold change /veh PRB3 (11715151_x_at) / RFU TUBB4B (11761932_at) / Fold change /veh TUBB4B (11761932_at) / RFU CAPN14 (11732068_a_at) / Fold change /veh CAPN14 (11732068_a_at) / RFU TMCC2 (11721928_a_at) / Fold change /veh TMCC2 (11721928_a_at) / RFU IRGQ (11745062_a_at) / Fold change /veh IRGQ (11745062_a_at) / RFU FAM174B (11720279_a_at) / Fold change /veh FAM174B (11720279_a_at) / RFU TMPRSS4 (11748680_a_at) / Fold change /veh TMPRSS4 (11748680_a_at) / RFU FAM212B (11763350_a_at) / Fold change /veh FAM212B (11763350_a_at) / RFU PLEKHG5 (11743358_a_at) / Fold change /veh PLEKHG5 (11743358_a_at) / RFU ZSCAN30 (11745921_a_at) / Fold change /veh ZSCAN30 (11745921_a_at) / RFU CMKLR1 (11741424_a_at) / Fold change /veh CMKLR1 (11741424_a_at) / RFU LOC101060620 /// MAPK8IP1 (11723275_at) / Fold change /veh LOC101060620 /// MAPK8IP1 (11723275_at) / RFU SPTSSB (11747773_x_at) / Fold change /veh SPTSSB (11747773_x_at) / RFU PRSS12 (11739890_at) / Fold change /veh PRSS12 (11739890_at) / RFU BIN1 (11741810_x_at) / Fold change /veh BIN1 (11741810_x_at) / RFU WNT11 (11732464_a_at) / Fold change /veh WNT11 (11732464_a_at) / RFU C10orf10 (11716521_a_at) / Fold change /veh C10orf10 (11716521_a_at) / RFU C5orf56 (11738089_at) / Fold change /veh C5orf56 (11738089_at) / RFU CYB561 (11721691_x_at) / Fold change /veh CYB561 (11721691_x_at) / RFU ANKRD19P (11752326_a_at) / Fold change /veh ANKRD19P (11752326_a_at) / RFU OR2T12 /// OR2T33 /// OR2T8 (11738714_s_at) / Fold change /veh OR2T12 /// OR2T33 /// OR2T8 (11738714_s_at) / RFU VCAN (11748164_a_at) / Fold change /veh VCAN (11748164_a_at) / RFU JSRP1 (11732532_at) / Fold change /veh JSRP1 (11732532_at) / RFU KRTAP10-11 (11738290_x_at) / Fold change /veh KRTAP10-11 (11738290_x_at) / RFU MYO3A (11730013_a_at) / Fold change /veh MYO3A (11730013_a_at) / RFU EBF3 (11725865_a_at) / Fold change /veh EBF3 (11725865_a_at) / RFU CAMK2N1 (11719241_x_at) / Fold change /veh CAMK2N1 (11719241_x_at) / RFU C5orf56 (11738088_a_at) / Fold change /veh C5orf56 (11738088_a_at) / RFU OLFML3 (11715873_a_at) / Fold change /veh OLFML3 (11715873_a_at) / RFU LOC100653217 /// NTM (11731650_a_at) / Fold change /veh LOC100653217 /// NTM (11731650_a_at) / RFU MAPK11 (11762145_a_at) / Fold change /veh MAPK11 (11762145_a_at) / RFU FIZ1 (11724087_x_at) / Fold change /veh FIZ1 (11724087_x_at) / RFU OASL (11726364_x_at) / Fold change /veh OASL (11726364_x_at) / RFU SOX15 (11748057_x_at) / Fold change /veh SOX15 (11748057_x_at) / RFU CD79A (11719716_a_at) / Fold change /veh CD79A (11719716_a_at) / RFU HIST1H1D (11736915_at) / Fold change /veh HIST1H1D (11736915_at) / RFU CASKIN2 (11723855_a_at) / Fold change /veh CASKIN2 (11723855_a_at) / RFU LOC730098 (11760151_x_at) / Fold change /veh LOC730098 (11760151_x_at) / RFU OR4N2 (11742367_at) / Fold change /veh OR4N2 (11742367_at) / RFU PRRT2 (11749266_a_at) / Fold change /veh PRRT2 (11749266_a_at) / RFU SNX32 (11753110_a_at) / Fold change /veh SNX32 (11753110_a_at) / RFU CDHR5 (11726645_a_at) / Fold change /veh CDHR5 (11726645_a_at) / RFU RCAN1 (11760418_a_at) / Fold change /veh RCAN1 (11760418_a_at) / RFU FAM167A (11723789_a_at) / Fold change /veh FAM167A (11723789_a_at) / RFU FAM26E (11764081_at) / Fold change /veh FAM26E (11764081_at) / RFU ISYNA1 (11749810_s_at) / Fold change /veh ISYNA1 (11749810_s_at) / RFU ACY1 (11761880_at) / Fold change /veh ACY1 (11761880_at) / RFU 11764098_at / Fold change /veh 11764098_at / RFU SAMD14 (11745864_x_at) / Fold change /veh SAMD14 (11745864_x_at) / RFU NPB (11741838_a_at) / Fold change /veh NPB (11741838_a_at) / RFU TMPRSS6 (11731388_a_at) / Fold change /veh TMPRSS6 (11731388_a_at) / RFU KRTAP10-2 (11738614_at) / Fold change /veh KRTAP10-2 (11738614_at) / RFU ARHGAP8 /// PRR5-ARHGAP8 (11727945_x_at) / Fold change /veh ARHGAP8 /// PRR5-ARHGAP8 (11727945_x_at) / RFU KRTAP5-7 /// NADSYN1 (11734609_at) / Fold change /veh KRTAP5-7 /// NADSYN1 (11734609_at) / RFU RASL12 (11751679_a_at) / Fold change /veh RASL12 (11751679_a_at) / RFU CDKN2B (11736163_a_at) / Fold change /veh CDKN2B (11736163_a_at) / RFU PRF1 (11729649_at) / Fold change /veh PRF1 (11729649_at) / RFU, ZNF638 /// ZNF638-IT1 / Fold change vs veh, ZNF638 /// ZNF638-IT1 / RFU, PANK3 / Fold change vs veh, PANK3 / RFU, SH3YL1 / Fold change vs veh, SH3YL1 / RFU, ZEB2 / Fold change vs veh, ZEB2 / RFU, NRIP1 / Fold change vs veh, NRIP1 / RFU, PTTG1IP / Fold change vs veh, PTTG1IP / RFU, CAPN2 / Fold change vs veh, CAPN2 / RFU, MED14 / Fold change vs veh, MED14 / RFU, SNORA58 / Fold change vs veh, SNORA58 / RFU, C1orf63 / Fold change vs veh, C1orf63 / RFU, LRRFIP1 / Fold change vs veh, LRRFIP1 / RFU, NDUFAF7 / Fold change vs veh, NDUFAF7 / RFU, SLC12A2 / Fold change vs veh, SLC12A2 / RFU, IBTK / Fold change vs veh, IBTK / RFU, ESF1 / Fold change vs veh, ESF1 / Fold change vs veh, TMEM50B / RFU, TAOK1 / Fold change vs veh, TAOK1 / RFU, ACBD3 / Fold change vs veh, ACBD3 / RFU, TMA16 / Fold change vs veh, TMA16 / RFU, RWDD3 / Fold change vs veh, RWDD3 / RFU, BCAT1 / Fold change vs veh, BCAT1 / RFU, EDEM3 / Fold change vs veh, EDEM3 / RFU, TMEM33 / Fold change vs veh, TMEM33 / RFU, WDR75 / Fold change vs veh, WDR75 / RFU, AHCTF1 / Fold change vs veh, AHCTF1 / RFU, TFRC / Fold change vs veh, TFRC / RFU, ZDHHC17 / Fold change vs veh, ZDHHC17 / RFU, NOM1 / Fold change vs veh, NOM1 / RFU, ARL8B / Fold change vs veh, ARL8B / RFU, ZBTB11 / Fold change vs veh, ZBTB11 / RFU, TAMM41 / Fold change vs veh, TAMM41 / RFU, KIAA1704 /// LOC100996395 / Fold change vs veh, KIAA1704 /// LOC100996395 / RFU, ING1 / Fold change vs veh, ING1 / RFU, TRMT61B / Fold change vs veh, TRMT61B / RFU, FUBP3 / Fold change vs veh, FUBP3 / RFU, TP53 / Fold change vs veh, TP53 / RFU, TNKS2 / Fold change vs veh, TNKS2 / RFU, ZFP14 / Fold change vs veh, ZFP14 / RFU, ACTR2 / Fold change vs veh, ACTR2 / RFU, PPP3R1 / Fold change vs veh, PPP3R1 / RFU, PIK3R1 / Fold change vs veh, PIK3R1 / RFU, HNRNPA1 / Fold change vs veh, HNRNPA1 / RFU, RNF170 / Fold change vs veh, RNF170 / RFU, ZNF28 / Fold change vs veh, ZNF28 / RFU, RNGTT / Fold change vs veh, RNGTT / RFU, OGT / Fold change vs veh, OGT / RFU, BRD1 / Fold change vs veh, BRD1 / RFU, MARS / Fold change vs veh, MARS / RFU, ZNF655 / Fold change vs veh, ZNF655 / RFU, FAHD1 / Fold change vs veh, FAHD1 / RFU, BDP1 / Fold change vs veh, BDP1 / RFU, LRRCC1 / Fold change vs veh, LRRCC1 / RFU, ARID1A / Fold change vs veh, ARID1A / RFU, ZNF146 / Fold change vs veh, ZNF146 / RFU, ZNF330 / Fold change vs veh, ZNF330 / RFU, GPN3 / Fold change vs veh, GPN3 / RFU, C9orf123 / Fold change vs veh, C9orf123 / RFU, N4BP2L2 / Fold change vs veh, N4BP2L2 / RFU, ARFIP1 / Fold change vs veh, ARFIP1 / RFU, FAM179B / Fold change vs veh, FAM179B / RFU, BCL10 / Fold change vs veh, BCL10 / RFU, UHRF1BP1L / Fold change vs veh, UHRF1BP1L / RFU, BET1 / Fold change vs veh, BET1 / RFU, CNOT2 / Fold change vs veh, CNOT2 / RFU, ZNF268 / Fold change vs veh, ZNF268 / Fold change vs veh, ZNF507 / RFU, DGCR2 / Fold change vs veh, DGCR2 / RFU, WDSUB1 / Fold change vs veh, WDSUB1 / Fold change vs veh, HSP90B1 /// MIR3652 / RFU, ADSS / Fold change vs veh, ADSS / RFU, GK / Fold change vs veh, GK / RFU, ZNF148 / Fold change vs veh, ZNF148 / RFU, TAF9 / Fold change vs veh, TAF9 / RFU, SLC1A5 / Fold change vs veh, SLC1A5 / RFU, SLMO2 / Fold change vs veh, SLMO2 / RFU, ABCC4 / Fold change vs veh, ABCC4 / RFU, LOC101060439 /// RAP1B / Fold change vs veh, LOC101060439 /// RAP1B / RFU, RFX7 / Fold change vs veh, RFX7 / RFU, GTPBP10 / Fold change vs veh, GTPBP10 / RFU, CNEP1R1 / Fold change vs veh, CNEP1R1 / RFU, BIVM-ERCC5 /// ERCC5 / Fold change vs veh, BIVM-ERCC5 /// ERCC5 / RFU, ILF3 / Fold change vs veh, ILF3 / RFU 11762660_at / Fold change /veh 11762660_at / RFU VCAN (11757783_s_at) / Fold change /veh VCAN (11757783_s_at) / RFU DDX43 (11728927_at) / Fold change /veh DDX43 (11728927_at) / RFU KRT8 (11758188_x_at) / Fold change /veh KRT8 (11758188_x_at) / RFU NKD1 (11759106_at) / Fold change /veh NKD1 (11759106_at) / RFU SRD5A1 (11742802_a_at) / Fold change /veh SRD5A1 (11742802_a_at) / RFU TPSAB1 /// TPSB2 (11721975_s_at) / Fold change /veh TPSAB1 /// TPSB2 (11721975_s_at) / RFU GSTM3 (11746129_a_at) / Fold change /veh GSTM3 (11746129_a_at) / RFU IL23R (11737362_x_at) / Fold change /veh IL23R (11737362_x_at) / RFU TMEM51 (11727254_a_at) / Fold change /veh TMEM51 (11727254_a_at) / RFU PIWIL2 (11732686_x_at) / Fold change /veh PIWIL2 (11732686_x_at) / RFU ORM1 (11744905_x_at) / Fold change /veh ORM1 (11744905_x_at) / RFU CCDC152 (11743942_at) / Fold change /veh CCDC152 (11743942_at) / RFU ECM1 (11717891_a_at) / Fold change /veh ECM1 (11717891_a_at) / RFU IL23R (11748794_a_at) / Fold change /veh IL23R (11748794_a_at) / RFU TNFAIP8L3 (11732012_x_at) / Fold change /veh TNFAIP8L3 (11732012_x_at) / RFU MBOAT4 (11741988_at) / Fold change /veh MBOAT4 (11741988_at) / RFU 11764193_at / Fold change /veh 11764193_at / RFU TMEM53 (11763286_at) / Fold change /veh TMEM53 (11763286_at) / RFU MAGEB2 (11727129_at) / Fold change /veh MAGEB2 (11727129_at) / RFU TMEM200A (11744735_a_at) / Fold change /veh TMEM200A (11744735_a_at) / RFU CCDC152 (11751479_a_at) / Fold change /veh CCDC152 (11751479_a_at) / RFU FAM211A (11726209_a_at) / Fold change /veh FAM211A (11726209_a_at) / RFU RGS16 (11746705_a_at) / Fold change /veh RGS16 (11746705_a_at) / RFU VCAN (11755009_s_at) / Fold change /veh VCAN (11755009_s_at) / RFU RHOB (11743442_s_at) / Fold change /veh RHOB (11743442_s_at) / RFU RGS16 (11720943_a_at) / Fold change /veh RGS16 (11720943_a_at) / RFU RGS16 (11720944_at) / Fold change /veh RGS16 (11720944_at) / RFU, VPS4B / Fold change vs veh, VPS4B / RFU, CREB1 / Fold change vs veh, CREB1 / RFU, DNAJC13 / Fold change vs veh, DNAJC13 / RFU, GNAQ / Fold change vs veh, GNAQ / RFU, CDK5R1 / Fold change vs veh, CDK5R1 / RFU, ZRANB3 / Fold change vs veh, ZRANB3 / RFU, CUL4A / Fold change vs veh, CUL4A / RFU, CCNY / Fold change vs veh, CCNY / RFU, UFL1 / Fold change vs veh, UFL1 / RFU, COG3 / Fold change vs veh, COG3 / RFU, DIAPH2 / Fold change vs veh, DIAPH2 / RFU, SKA2 / Fold change vs veh, SKA2 / RFU, AFF3 / Fold change vs veh, AFF3 / RFU, LMF1 / Fold change vs veh, LMF1 / RFU, IPO11 / Fold change vs veh, IPO11 / RFU, DFFB / Fold change vs veh, DFFB / RFU, FOXP1 / Fold change vs veh, FOXP1 / RFU, CARD8 / Fold change vs veh, CARD8 / RFU, STRN3 / Fold change vs veh, STRN3 / RFU, ADK / Fold change vs veh, ADK / RFU, RASSF2 / Fold change vs veh, RASSF2 / RFU, WIPF1 / Fold change vs veh, WIPF1 / RFU, LARP1B / Fold change vs veh, LARP1B / RFU, RASA1 / Fold change vs veh, RASA1 / RFU, RB1 / Fold change vs veh, RB1 / RFU, PPFIA1 / Fold change vs veh, PPFIA1 / RFU, MAT2A / Fold change vs veh, MAT2A / RFU, CCT5 / Fold change vs veh, CCT5 / RFU, WDR92 / Fold change vs veh, WDR92 / RFU, CUX1 / Fold change vs veh, CUX1 / RFU, TTC7A / Fold change vs veh, TTC7A / RFU, TMEM135 / Fold change vs veh, TMEM135 / RFU, DEPTOR / Fold change vs veh, DEPTOR / RFU, CPM / Fold change vs veh, CPM / RFU, DNAJB6 / Fold change vs veh, DNAJB6 / RFU, CACNA2D3 / Fold change vs veh, CACNA2D3 / RFU, DTX4 / Fold change vs veh, DTX4 / RFU, TFCP2 / Fold change vs veh, TFCP2 / RFU, GMCL1 /// GMCL1P1 / Fold change vs veh, GMCL1 /// GMCL1P1 / RFU, AEBP2 / Fold change vs veh, AEBP2 / RFU, SNHG1 /// SNORD22 /// SNORD25 /// SNORD26 /// SNORD27 /// SNORD28 /// SNORD29 /// SNORD31 / Fold change vs veh, SNHG1 /// SNORD22 /// SNORD25 /// SNORD26 /// SNORD27 /// SNORD28 /// SNORD29 /// SNORD31 / Fold change (Aza/veh), C12orf56 (ProbeSet 11735607_a_at) / Fold change (ACY-1035/veh), C12orf56 (ProbeSet 11735607_a_at) / Fold change (Aza/veh), FGFR1OP (ProbeSet 11751329_s_at) / Fold change (ACY-1035/veh), FGFR1OP (ProbeSet 11751329_s_at) / Fold change (Aza/veh), VPS36 (ProbeSet 11739960_a_at) / Fold change (ACY-1035/veh), VPS36 (ProbeSet 11739960_a_at) / RFU SYPL1 (11715823_x_at) / Fold change /veh SYPL1 (11715823_x_at) / RFU IGFBP7 (11715501_s_at) / Fold change /veh IGFBP7 (11715501_s_at) / RFU REEP3 (11722064_at) / Fold change /veh REEP3 (11722064_at) / RFU IGLL1 (11728026_x_at) / Fold change /veh IGLL1 (11728026_x_at): dose or concentration left out as unconfirmed
Details: MV-4-11 cells, 48 hours

Nc1ncn([C@@H]2O[C@H](CO)[C@@H](O)[C@H]2O)c(=O)n1 [azacitidine]
Fold change /veh PLEKHG5 (11737974_s_at): 1.17
